In patent US9481670B2, “Triazine compounds” (Sphaera Pharma PTE. Ltd., priority 2011, dated 2016):
pIC50: −log10 of the molar value.

Each molecule was assayed against T1, PI3K alpha (Homo sapiens, UniProt P42336) (assay: P110 Alpha TR-FRET Assay (PI3K alpha kinase assay, HTRF Transcreener ADP Assay)). Conditions: PI3K (WT).
T1 construct: purchased Millipore Upstate
Assay type: biochemical
Summary of the method: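 HTRF Transcreener ADP read-out of ADP formed by PI3K (50 ng enzyme) in 50 mM HEPES pH 7.5, 5 mM MgCl2, 1 mM DTT, 30 μM Na3VO4. Compound preincubated with enzyme 20 min; reaction started with 10 μM ATP and 5 μM PIP2, run 20 min, then ADP-d2/anti-ADP cryptate detection for 1 h.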

T1 sequence (P42336 whole entry): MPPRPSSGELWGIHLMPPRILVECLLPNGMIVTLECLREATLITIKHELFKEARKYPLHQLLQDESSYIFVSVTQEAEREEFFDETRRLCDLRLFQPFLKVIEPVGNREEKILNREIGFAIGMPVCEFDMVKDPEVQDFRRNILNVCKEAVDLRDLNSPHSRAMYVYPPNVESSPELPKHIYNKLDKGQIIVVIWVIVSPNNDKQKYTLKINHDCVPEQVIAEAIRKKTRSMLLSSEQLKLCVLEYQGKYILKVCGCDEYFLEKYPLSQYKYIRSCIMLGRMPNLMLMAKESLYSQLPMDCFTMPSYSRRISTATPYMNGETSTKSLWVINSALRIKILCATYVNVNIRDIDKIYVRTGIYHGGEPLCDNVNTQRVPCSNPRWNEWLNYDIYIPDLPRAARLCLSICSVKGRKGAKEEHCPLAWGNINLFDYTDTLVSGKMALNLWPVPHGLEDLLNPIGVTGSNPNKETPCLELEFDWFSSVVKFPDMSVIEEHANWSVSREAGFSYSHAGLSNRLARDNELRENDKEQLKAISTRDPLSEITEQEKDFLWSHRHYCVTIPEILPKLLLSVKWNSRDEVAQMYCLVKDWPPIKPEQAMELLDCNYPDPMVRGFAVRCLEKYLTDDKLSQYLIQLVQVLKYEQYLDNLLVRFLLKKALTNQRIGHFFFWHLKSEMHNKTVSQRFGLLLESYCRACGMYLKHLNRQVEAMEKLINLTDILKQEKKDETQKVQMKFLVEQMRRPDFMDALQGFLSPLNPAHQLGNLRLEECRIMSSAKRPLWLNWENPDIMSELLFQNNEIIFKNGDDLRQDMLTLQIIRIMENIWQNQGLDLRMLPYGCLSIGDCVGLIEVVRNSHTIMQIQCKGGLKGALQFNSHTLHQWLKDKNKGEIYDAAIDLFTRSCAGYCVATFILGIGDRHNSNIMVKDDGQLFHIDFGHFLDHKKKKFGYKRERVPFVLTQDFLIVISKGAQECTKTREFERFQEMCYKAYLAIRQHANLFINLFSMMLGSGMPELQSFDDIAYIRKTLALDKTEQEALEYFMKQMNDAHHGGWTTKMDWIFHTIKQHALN
T1 sequence (P27986 whole entry partner): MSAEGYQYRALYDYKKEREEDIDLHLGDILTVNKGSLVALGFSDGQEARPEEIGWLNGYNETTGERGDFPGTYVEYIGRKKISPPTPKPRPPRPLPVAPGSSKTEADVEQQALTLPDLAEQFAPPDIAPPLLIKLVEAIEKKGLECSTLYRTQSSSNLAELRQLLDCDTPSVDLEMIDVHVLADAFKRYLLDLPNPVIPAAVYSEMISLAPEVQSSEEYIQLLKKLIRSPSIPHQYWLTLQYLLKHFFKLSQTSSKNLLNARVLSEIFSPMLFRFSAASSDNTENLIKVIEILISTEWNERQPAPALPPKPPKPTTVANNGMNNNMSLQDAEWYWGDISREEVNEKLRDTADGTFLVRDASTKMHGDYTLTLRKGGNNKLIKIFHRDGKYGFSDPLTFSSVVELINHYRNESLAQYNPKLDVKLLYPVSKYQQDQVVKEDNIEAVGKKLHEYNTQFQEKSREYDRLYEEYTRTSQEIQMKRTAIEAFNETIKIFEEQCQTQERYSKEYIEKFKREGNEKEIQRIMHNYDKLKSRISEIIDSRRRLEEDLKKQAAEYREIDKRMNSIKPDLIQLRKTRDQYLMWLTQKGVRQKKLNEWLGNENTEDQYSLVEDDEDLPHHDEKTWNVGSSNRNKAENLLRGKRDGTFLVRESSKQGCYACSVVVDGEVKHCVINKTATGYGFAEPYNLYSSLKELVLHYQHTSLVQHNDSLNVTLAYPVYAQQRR

Row | SMILES | pIC50
1 | C[C@H]1COCCN1c1nc(Oc2ccc(C(=O)N(C)C)cc2)nc(-c2cnc(N)s2)n1 [Compound 1003, 4-9-{[4-1-(2-22-amino-1,3-thiazol-5-yl)-6-5-(3-25-methylmorpholin-4-yl)-1,3,5-triazin-2-yl]oxy}-N,N-dimethylbenzamide] | > 5.30
2 | CN(C)C(=O)N1CCC(Oc2nc(-c3cnc(N)nc3)nc(N3CCOCC3)n2)CC1 [Compound 1008, 4-14-{[4-1-(2-17-aminopyrimidin-5-yl)-6-5-(morpholin-4-yl)-1,3,5-triazin-2-yl]oxy}-N,N-dimethylpiperidine-1-carboxamide] | > 5.30
3 | Nc1ncc(-c2nc(N3CCOCC3)nc(N3CCNC(=O)CC3)n2)cn1 [Compound 1051, 1-6-[4-1-(2-22-aminopyrimidin-5-yl)-6-5-(morpholin-4-yl)-1,3,5-triazin-2-yl]-1,4-diazepan-5-one] | > 5.30
4 | CN(C)C(=O)c1sccc1Nc1nc(-c2cccc3[nH]ncc23)nc(N2CCOCC2)n1 [Compound 1132, 3-((4-(1H-indazol-4-yl)-6-morpholino-1,3,5-triazin-2-yl)amino)-N,N-dimethylthiophene-2-carboxamide] | > 5.30
5 | CN(C)C(=O)N1CCCC(Oc2nc(-c3cccc4[nH]ncc34)nc(N3CCOCC3)n2)C1 (stereo not drawn) [Compound 1091, 3-22-{[4-1-(1H-indazol-4-yl)-6-5-(morpholin-4-yl)-1,3,5-triazin-2-yl]oxy}-N,N-dimethylpiperidine-1-carboxamide] | > 5.30
6 | CN(C)C(=O)c1ccc(Oc2nc(-c3cccc4[nH]ncc34)nc(N3CCOc4ccccc43)n2)cc1 [Compound 1043, 4-9-{[4-5-(3,4-dihydro-2H-1,4-benzoxazin-4-yl)-6-1-(1H-indazol-4-yl)-1,3,5-triazin-2-yl]oxy}-N,N-dimethylbenzamide] | < 5.30
7 | CC(=O)Nc1cccc(-c2nc(N3CCOCC3)nc(N(CC(=O)O)C(C)=O)n2)c1 [Compound 1121, 2-9-{N-[4-1-(3-14-acetamidophenyl)-6-5-(morpholin-4-yl)-1,3,5-triazin-2-yl]acetamido}acetic acid] | < 5.30
8 | N#Cc1cccc(Oc2nc(-c3cccc4[nH]ncc34)nc(N3CCOCC3)n2)c1 [Compound 1131, 3-22-{[4-1-(1H-indazol-4-yl)-6-5-(morpholin-4-yl)-1,3,5-triazin-2-yl]oxy}benzonitrile] | < 5.30
9 | N[C@H]1CC[C@H](Oc2nc(-c3cccc4[nH]ncc34)nc(N3CCOCC3)n2)CC1 [Compound 1152, (1r,4r)-4-9-{[4-1-(1H-indazol-4-yl)-6-5-(morpholin-4-yl)-1,3,5-triazin-2-yl]oxy}cyclohexan-1-amine] | > 5.30
10 | CN(C)C(=O)Cc1ccc(Oc2nc(-c3ccc(N)nc3)nc(N3CCOCC3)n2)cc1 [Compound 1017, 2-20-(4-9-{[4-1-(6-12-aminopyridin-3-yl)-6-5-(morpholin-4-yl)-1,3,5-triazin-2-yl]oxy}phenyl)-N,N-dimethylacetamide] | > 5.30
11 | CN(C)C(=O)NC(C)(C)COc1nc(-c2cccc3[nH]ncc23)nc(N2CCOCC2)n1 [Compound 1147, 1-(1-14-{[4-1-(1H-indazol-4-yl)-6-5-(morpholin-4-yl)-1,3,5-triazin-2-yl]oxy}-2-15-methylpropan-2-yl)-3,3-dimethylurea] | > 5.30
12 | CS(=O)(=O)N1CCC(Oc2nc(-c3cccc4[nH]ncc34)nc(N3CCOCC3)n2)CC1 [Compound 1102, 4-7-{4-3-[(1-25-methanesulfonylpiperidin-4-yl)oxy]-6-5-(morpholin-4-yl)-1,3,5-triazin-2-yl}-1H-indazole] | > 5.30
13 | CN(C)C(=O)c1ccc(Oc2nc(-c3ccc(N)nc3)nc(N3C4CCC3COC4)n2)cc1 [Compound 1012, 4-9-{[4-1-(6-12-aminopyridin-3-yl)-6-5-{3-oxa-8-azabicyclo[3.2.1]octan-8-yl}-1,3,5-triazin-2-yl]oxy}-N,N-dimethylbenzamide] | > 5.30
14 | CNC(=O)[C@H]1CC[C@H](Oc2nc(-c3cccc4[nH]ncc34)nc(N3CCOCC3)n2)CC1 [Compound 1142, (1r,4r)-4-21-{[4-1-(1H-indazol-4-yl)-6-5-(morpholin-4-yl)-1,3,5-triazin-2-yl]oxy}-N-methylcyclohexane-1-carboxamide] | > 5.30
15 | CN(C)C(=O)c1ccc(Oc2nc(NC3CCOCC3)nc(-c3cccc4[nH]ncc34)n2)cc1 [Compound 1057, 4-((4-(1H-indazol-4-yl)-6-((tetrahydro-2H-pyran-4-yl)amino)-1,3,5-triazin-2-yl)oxy)-N,N-dimethylbenzamide] | < 5.30
16 | CN(C)C(=O)c1cccc(Oc2nc(-c3ccc(N)nc3)nc(N3CCOCC3)n2)c1 [Compound 1015, 3-20-{[4-1-(6-11-aminopyridin-3-yl)-6-5-(morpholin-4-yl)-1,3,5-triazin-2-yl]oxy}-N,N-dimethylbenzamide] | > 5.30
17 | COc1cccc(-c2nc(N)nc(N3CCOCC3)n2)c1 [Compound 1128, 4-4-(3-13-methoxyphenyl)-6-0-(morpholin-4-yl)-1,3,5-triazin-2-amine] | < 5.30
18 | CN(C)C(=O)C(=O)Nc1ccc(Oc2nc(-c3cccc4[nH]ncc34)nc(N3CCOCC3)n2)cc1 [Compound 1101, N-(4-14-{[4-1-(1H-indazol-4-yl)-6-5-(morpholin-4-yl)-1,3,5-triazin-2-yl]oxy}phenyl)-N′,N′-dimethylethanediamide] | > 5.30
19 | CN(C)C(=O)N1CCCC(Oc2nc(-c3cccc4[nH]ncc34)nc(N3CCOCC3)n2)CC1 (stereo not drawn) [Compound 1087, 4-14-{[4-1-(1H-indazol-4-yl)-6-5-(morpholin-4-yl)-1,3,5-triazin-2-yl]oxy}-N,N-dimethylazepane-1-carboxamide] | > 5.30
20 | CN(C)C(=O)NC1CCN(c2nc(-c3ccc(N)nc3)nc(N3CCOCC3)n2)CC1 [Compound 1069, 1-{1-7-[4-3-(6-16-aminopyridin-3-yl)-6-5-(morpholin-4-yl)-1,3,5-triazin-2-yl]piperidin-4-yl}-3,3-dimethylurea] | > 5.30
21 | CN(C)C(=O)[C@@H]1CCC[C@@H](Oc2nc(-c3cccc4[nH]ncc34)nc(N3CCOCC3)n2)C1 [Compound 1133, (1R,3R)-3-14-{[4-1-(1H-indazol-4-yl)-6-5-(morpholin-4-yl)-1,3,5-triazin-2-yl]oxy}-N,N-dimethylcyclohexane-1-carboxamide] | > 5.30
22 | NC(=O)c1cccc(Nc2nc(-c3cnc(N)nc3)nc(N3CCOCC3)n2)c1 [Compound 1046, 3-((4-(2-aminopyrimidin-5-yl)-6-morpholino-1,3,5-triazin-2-yl)amino)benzamide] | > 5.30
23 | Nc1ccc(-c2nc(CO)nc(N3CCOCC3)n2)cn1 [Compound 1071, 1-7-[4-3-(6-16-aminopyridin-3-yl)-6-5-(morpholin-4-yl)-1,3,5-triazin-2-yl]methanol] | > 5.30

Results, then the molecule that gave them:

Row | pIC50 | SMILES
24 | > 5.30 | CN(C)C(=O)CCNc1nc(-c2cccc3[nH]ncc23)nc(N2CCOCC2)n1 [Compound 1223, 3-((4-(1H-indazol-4-yl)-6-morpholino-1,3,5-triazin-2-yl)amino)-N,N-dimethylpropanamide]
25 | > 5.30 | CN(C)C(=O)C(CCS(C)(=O)=O)Nc1nc(-c2cccc3[nH]ncc23)nc(N2CCOCC2)n1 (stereo not drawn) [Compound 1210, 2-((4-(1H-indazol-4-yl)-6-morpholino-1,3,5-triazin-2-yl)amino)-N,N-dimethyl-4-(methylsulfonyl)butanamide]
26 | > 5.30 | CC(Nc1nc(-c2cccc3[nH]ncc23)nc(N2CCOCC2)n1)C(N)=O (stereo not drawn) [Compound 1234, 2-((4-(1H-indazol-4-yl)-6-morpholino-1,3,5-triazin-2-yl)amino)propanamide]
27 | > 5.30 | O=C(NC1CCNCC1)c1cccc(Nc2nc(-c3cccc4[nH]ncc34)nc(N3CCOCC3)n2)c1 [Compound 1157, 3-((4-(1H-indazol-4-yl)-6-morpholino-1,3,5-triazin-2-yl)amino)-N-(piperidin-4-yl)benzamide]
28 | > 5.30 | NC1CCN(c2nc(-c3cccc4[nH]ncc34)nc(N3CCOCC3)n2)CC1 [Compound 1222, 1-8-[4-1-(1H-indazol-4-yl)-6-5-(morpholin-4-yl)-1,3,5-triazin-2-yl]piperidin-4-amine]
29 | > 5.30 | CN(C)C(=O)[C@H]1CC[C@H](Nc2nc(-c3cccc4[nH]ncc34)nc(N3CCOCC3)n2)CC1 [Compound 1214, (1r,4r)-4-((4-(1H-indazol-4-yl)-6-morpholino-1,3,5-triazin-2-yl)amino)-N,N-dimethylcyclohexanecarboxamide]
30 | > 5.30 | NC(=O)CNc1nc(-c2cccc(O)c2)nc(N2CCOCC2)n1 [Compound 1181, 2-((4-(3-hydroxyphenyl)-6-morpholino-1,3,5-triazin-2-yl)amino)acetamide]
31 | > 5.30 | c1cc(-c2nc(-c3cccc4[nH]ncc34)nc(N3CCOCC3)n2)c2cn[nH]c2c1 [Compound 1224, 4-12-[4-3-(1H-indazol-4-yl)-6-5-(morpholin-4-yl)-1,3,5-triazin-2-yl]-1H-indazole]
32 | < 5.30 | O=C(O)CNc1nc(-c2ccc(F)nc2)nc(N2CCOCC2)n1 [Compound 1179, 2-((4-(6-fluoropyridin-3-yl)-6-morpholino-1,3,5-triazin-2-yl)amino)acetic acid]
33 | > 5.30 | OC1CCN(c2nc(-c3cccc4[nH]ncc34)nc(N3CCOCC3)n2)CC1 [Compound 1220, 1-8-[4-1-(1H-indazol-4-yl)-6-5-(morpholin-4-yl)-1,3,5-triazin-2-yl]piperidin-4-ol]
34 | > 5.30 | c1cc(-c2nc(N3CCNCC3)nc(N3CCOCC3)n2)c2cn[nH]c2c1 [Compound 1229, 4-17-[4-5-(morpholin-4-yl)-6-3-(piperazin-1-yl)-1,3,5-triazin-2-yl]-1H-indazole]
35 | > 5.30 | NC(=O)c1cccc(Nc2nc(-c3cccc4[nH]ncc34)nc(N3CCOCC3)n2)c1 [Compound 1201, 3-((4-(1H-indazol-4-yl)-6-morpholino-1,3,5-triazin-2-yl)amino)benzamide]
36 | > 5.30 | CC(C)(Nc1nc(-c2cccc(O)c2)nc(N2CCOCC2)n1)C(=O)O [Compound 1188, 2-((4-(3-hydroxyphenyl)-6-morpholino-1,3,5-triazin-2-yl)amino)-2-methylpropanoic acid]
